According to US11701360B2, “Composition for inducing differentiation and protection of neural stem cells and method for inducing neuro-regeneration using the same composition” (GENUV Inc., priority 2017, dated 2023):
“Also recorded” adds a separate entry of the source. Where two headings read alike, the source gives them in different places.

Columns and labels:
[1] = tested on: mouse adult neural stem cells; conditions: for cell protection and differentiation of NSC under amyloid-beta cytotoxicity: 10 μM amyloid-beta, second day of culture; for concentration at which differentiation-inducing effect starts: no amyloid-beta, day 2 of culture
Protocol: NSC were isolated from the subventricular zone of week 8 mouse brain, treated with 20 ng/ml human basic fibroblast growth factor (bFGF) and 20 ng/ml human epidermal growth factor (EGF) in an IPM medium, and cultured as a suspension in 24-well plates for 7 days.
Two days before the isolation of single cells, 6-well plates were prepared by treating the wells with 10 μg/ml poly-L-ornithine solution and incubating overnight at room temperature for coating. The next day, poly-L-ornithine solution was removed and the plates were washed 3 times with sterilized triple distilled water. […] The culture solution used is N2 culture medium (supplemented with 20 ng/ml bFGF and 20 ng/ml EGF). Right before seeding, the coating solution was suctioned out, and the single cells were uniformly seeded into the culture plate before the plate dried up. Cells were allowed to attach to the plates for about one minute, and after checking that cells were sufficiently attached, an additional 1.5 ml of culture medium (N2 culture medium with 20 ng/ml bFGF and 20 ng/ml EGF) was added to the cells and cultured in a 37° C. incubator for 24 hours.
Wells not treated with amyloid-beta were left to use as negative controls.
Gibco's (Waltham, Mass.) human Aβ (1-42) was purchased to use for the amyloid-beta (Aβ), and the following process was followed to create oligomers. […] Then, it was dried for 10 minutes in a speed Vac, after which DMSO (Sigma, cat #.D2650) was added to bring the concentration to 5 mM and then lightly vortexed at room temperature for 10 minutes. […] The solution was incubated at 4° C. for 24 hours and then added into the cultured cells.
The NCSs were cultured with the daily addition of EGF, bFGF, amyloid-beta, and test materials for 4 days.

[2] = cited from earlier work
[3] = tested on: mouse embryonic neural stem cells; experiment: Immunocytochemistry analysis (Tuj1/DAPI staining); type: cell-based; conditions: 4 days
Protocol: Tuj1 (Neuron specific class III beta-tubulin) is a neuron specific marker protein, which was conjugated to rhodamine to show fluorescent red, while DAPI binds to the cell DNA and stains the cell nuclei fluorescent blue. […] The medium was removed and the cells were washed with PBS. After fixing with 10% formaldehyde (Sigma cat #. HT501128) at room temperature for 10 minutes, they were washed again with PBS. They were permeabilized with 0.2% Triton X-100 (Sigma, cat #. 93443) at room temperature for 15 minutes, washed with PBS, and incubated with 10% BSA (Sigma, cat #. A2153)+1% normal goat serum (Vector lab, Burlingame, Calif., cat #. S1000) at room temperature for 1 hour. […] The solution was removed, washed with PBS, and incubated at room temperature for 1 hour with the secondary antibody (rhodamine-conjugated antibody) diluted in 1% BSA+1% normal goat serum at a ratio of 1:200. Then, the cells were washed with PBS, incubated with 5 μg/ml DAPI (Sigma, cat #. D9542) for 5 minutes, washed with PBS again, and mounted on a slide glass for analysis with a fluorescent microscope.

[4] = tested on: mouse embryonic neural stem cells; experiment: Morphology analysis (phase-contrast) of NSC differentiation in mouse embryonic neural stem cells; type: cell-based; conditions: 1.0 μM and 10 μM; day 2 of culture
Protocol: Neural stem cells were isolated from the brain of a day 14.5 mouse embryo, treated with 10 ng/ml human basic fibroblast growth factor (bFGF) (Peprotech, Princeton, NG, cat #0.100-18B) and 20 ng/ml human epidermal growth factor (EGF) (Peprotech, cat #. AF-100-15) in a N2 culture medium, and cultured in suspension in a 25 cm2 flask (Nunc, Pittsburgh, Pa.) for 4 days. Formation of neurospheres was observed after 2 days.
In order to isolate single cells, 6-well plates were prepared the day before by treating the wells with 15 μg/ml poly-L-ornithine (Sigma, St. Louis, Mo., cat #.P2533) solution and incubating overnight at 37° C. for coating. The day of the single cell isolation, poly-L-ornithine solution was removed, the plates were washed with PBS three times, and 10 μg/ml fibronectin (Gibco, Waltham, Mass., cat #. 33016015) solution was added and incubated at 37° C. for 2 hours for coating.
Various concentrations of the compound of [Formula 1]
FIG. 10b is the analysis of Tuj1 mRNA expression in the cells of each group.

MEK1 = MEK1 (Homo sapiens (Human), UniProt Q02750); conditions: cited from earlier work
Chain of MEK1 (Q02750 whole entry, species assumed): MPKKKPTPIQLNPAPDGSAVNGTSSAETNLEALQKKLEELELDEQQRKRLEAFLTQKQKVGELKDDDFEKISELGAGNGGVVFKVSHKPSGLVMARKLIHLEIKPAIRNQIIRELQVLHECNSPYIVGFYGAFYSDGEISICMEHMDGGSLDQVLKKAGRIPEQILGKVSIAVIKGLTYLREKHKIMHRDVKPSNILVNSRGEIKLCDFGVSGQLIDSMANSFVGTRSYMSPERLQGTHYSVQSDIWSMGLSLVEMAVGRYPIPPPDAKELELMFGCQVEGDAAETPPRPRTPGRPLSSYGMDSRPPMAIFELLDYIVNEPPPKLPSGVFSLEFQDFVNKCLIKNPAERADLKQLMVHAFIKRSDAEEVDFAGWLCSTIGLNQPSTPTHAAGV

In the case of `O=C(NC[C@H](O)CO)c1ccncc1Nc1ccc(I)cc1F` [AS703026, pimasertib], the “cell protection and differentiation of NSC under amyloid-beta cytotoxicity” value (from here on “cell protection and differentiation”) ([1]; compound 10 μM) is listed as “provided cell protection and induced the differentiation of NSC”, the cell toxicity ([1]; trametinib 10 nM and 100 nM, AS703026 10 μM, 4 days) is listed as “did not elicit cell toxicity” and the “expression of phosphorylated ERK in the mouse brain” value [2] is listed as “decrease the expression of phosphorylated ERK”. For the same compound, the “crossing of the blood brain barrier” value ([2]; mouse) was “effectively cross the BBB”, the “neuron differentiation (Tuj1 staining)” value ([3]; 0.1 μM) was “no differentiation was observed” and the “neuron differentiation (Tuj1 staining)” value ([3]; 1.0 μM) was “neuron differentiation occurs at this concentration, albeit only to a marginal extent”.

With `Cc1cc(C(=O)NOCCO)c(Nc2ccc(I)cc2F)n(C)c1=O` [AZD8330] the “cell protection and differentiation” value ([1]; compound 1 μM) was “provided cell protection and induced the differentiation of NSC”.

In the case of `O=C(NOCC1CC1)c1ccc(F)c(F)c1Nc1ccc(I)cc1Cl` [PD184352], the cell death [4] is reported as “all the cells died”.

With `O=C(NOCC(O)CO)c1cc(Br)c(F)c(F)c1Nc1ccc(I)cc1F` (stereo not drawn) [PD318088] the “cell protection and differentiation” value ([1]; compound 1 μM) was “provided cell protection and induced the differentiation of NSC”.

With `O=C(NOC[C@H](O)CO)c1ccc(F)c(F)c1Nc1ccc(I)cc1F` [PD0325901] the “differentiation-inducing effect (morphology)” value ([1]; 0.1 μM to 10 μM, day 2) was “excellent inducing effect” and the “concentration at which differentiation-inducing effect starts” value [1] was 0.1 µM.

In the case of `CNS(=O)(=O)Nc1nccc(Cc2c(C)c3ccc(Oc4ncccn4)cc3oc2=O)c1F` [RO5126766], the “concentration at which differentiation-inducing effect starts” value [1] is reported as 1.0 µM.

For `N#CC(=C(/N)Sc1ccccc1N)/C(C#N)=C(\N)Sc1ccccc1N` [U0126], the cell proliferation ([1]; 0.1 μM and 1.0 μM, day 2) was “inhibition of cell proliferation”, the “differentiation-inducing effect (morphology)” value ([1]; 2.5 μM, day 2) was “did not show any clear differentiation-inducing effect” and the cell cytotoxicity ([1]; 10 μM, day 2) was “cell cytotoxicity”. For the same compound, the “NSC differentiation-inducing effect (morphology)” value ([1]; all concentrations tested, day 2) was “failed to show any NSC differentiation-inducing effect”.

For `O=C(c1ccc(F)c(F)c1Nc1ccc(I)cc1F)N1CC(O)([C@@H]2CCCCN2)C1` [cobimetinib], the “differentiation of adult NSC (morphology)” value ([1]; 10 μM, regardless of whether amyloid-beta was added, second day) is given as “did not induce the differentiation of adult NSC; also recorded: does not induce the differentiation of mouse adult neural stem cells” and the “selectivity toward MEK1 compared with MEK2” value (MEK1) is given as no less than 100 ×.

For `CC12CC3CC(C)(C1)CC(N)(C3)C2` [memantine], the “cell death of neural stem cells” value ([1]; 5 μM and 10 μM, 4 days) was “death of neural stem cells” and the “differentiation of NSC into neurons (morphology)” value ([1]; 5 μM and 10 μM, 4 days) was “not observed”.

For `COc1cc(F)c(F)c(Nc2ccc(I)cc2F)c1NS(=O)(=O)C1(C[C@H](O)CO)CC1` [refametinib], the “cell protection and differentiation” value ([1]; compound 1 μM) was “provided cell protection and induced the differentiation of NSC”.

For BI847325, the cell proliferation ([1]; 1.0 nM and 10 nM, day 2) was “somewhat inhibited”, the “differentiation-inducing effect (morphology)” value ([1]; 1.0 nM and 10 nM, day 2) was “not observed” and the “differentiation-inducing effect (morphology)” value ([1]; 0.1 μM, day 2) was “only a weak differentiation-inducing effect”.
